Legend:
ZEAMX (Corn, Field) = assay: Postemergence herbicidal evaluation; format: in vivo, Zea mays; settings: postemergence
Procedure, shortened: (§1)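 Two-week-old seedlings sprayed with compound in 50/50 acetone/water plus 0.5% TWEEN 20, at about 0.0156 to 0.500 kg/ha, nozzle at 40 psi. Kept in greenhouse; rated visually 4-5 weeks after treatment on a 0-9 scale versus control, repeat tests averaged.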

AMBEL (Ragweed, Common) [1] = assay: Preemergence herbicidal evaluation; format: in vivo, Ambrosia artemisifolia; settings: preemergence, rated 4-5 weeks after treatment, 0-9 scale
Procedure, shortened: (§2)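 Scores (0–9) reflect visual comparison with control plants for stand, vigor, malformation, size and chlorosis. Compound was applied to the soil after sowing, before emergence, as an aqueous acetone spray (about 0.0156–0.500 kg/ha), and cups were kept in a greenhouse for 4–5 weeks.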

AMBEL (Ragweed, Common) [2] = assay: Postemergence herbicidal evaluation; format: in vivo, Ambrosia artemisifolia; settings: postemergence
Procedure, shortened: as §1

GALAP (Galium) = assay: Preemergence herbicidal evaluation; format: in vivo, Galium aparine; settings: preemergence, rated 4-5 weeks after treatment, 0-9 scale
Procedure, shortened: as §2

CASOB (Sicklepod) = assay: Preemergence herbicidal evaluation; format: in vivo, Cassia obtusifolia; settings: preemergence, rated 4-5 weeks after treatment, 0-9 scale
Procedure, shortened: as §2

SETVI (Foxtail, Green) = assay: Preemergence herbicidal evaluation; format: in vivo, Setaria viridis; settings: preemergence, rated 4-5 weeks after treatment, 0-9 scale
Procedure, shortened: as §2

ABUTH (Velvetleaf) = assay: Preemergence herbicidal evaluation; format: in vivo, Abutilon theophrasti; settings: preemergence, rated 4-5 weeks after treatment, 0-9 scale
Procedure, shortened: as §2

CYPSE (Flatsedge) = assay: Preemergence weed control under flooded paddy conditions; format: in vivo, Cyperus serotinus; settings: rated 3-4 weeks after treatment
Procedure, shortened: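 Silt loam, seeds in top 0.5 cm; flood held 1.5-3 cm; test cpd as acetone/water 50/50 into flood water, ~0.0313-0.500 kg/ha a.i.; greenhouse 3-4 wk; visual 0-9 score vs control.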

[3] = system: IPOHE (Morningglory, Ivyleaf); assay: Postemergence herbicidal evaluation; format: in vivo, Ipomoea hederacea; settings: postemergence
Procedure, shortened: as §1

[4] = system: GLXMAW (Soybean, Williams); assay: Preemergence herbicidal evaluation; format: in vivo, Glycine max, (L.) Merr. cv Williams; settings: preemergence, rated 4-5 weeks after treatment, 0-9 scale
Procedure, shortened: as §2

[5] = system: ECHORC (Watergrass (Calif.)); assay: Postemergence weed control under flooded paddy conditions; format: in vivo, Echinochloa oryzoides; settings: postemergence weeds, rated 3 to 4 weeks after treatment
Procedure, shortened: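 Containers holding 3–5 cm weeds and rice at 1.5–2.5 leaves are flooded to 1.5–3 cm above soil. Compound in 50/50 v/v aqueous/acetone is then added directly to the water, about 0.0313–0.500 kg/ha. Plants are kept in the greenhouse and rated 0–9 visually at 3–4 weeks.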

[6] = system: GLXMAW (Soybean, Williams); assay: Postemergence herbicidal evaluation; format: in vivo, Glycine max, (L.) Merr. cv Williams; settings: postemergence
Procedure, shortened: as §1

ECHCG (Barnyardgrass) = assay: Preemergence herbicidal evaluation; format: in vivo, Echinochloa crus-galli; settings: preemergence, rated 4-5 weeks after treatment, 0-9 scale
Procedure, shortened: as §2

## CN1C(=O)C(CC(=O)NS(C)(=O)=O)SC1=Nc1cc(-n2c(=O)cc(C(F)(F)F)n(C)c2=O)c(F)cc1Cl (stereo not drawn) [Compound 97, 2-{{2-Chloro-5-[3,6-dihydro-3-methyl-2,6-dioxo-4-(trifluoromethyl)-1(2H)-pyrimidinyl]-4-fluorophenyl}imino}-3-methyl-N-(methylsulfonyl)-4-oxo-5-thiazolidineacetamide]
ZEAMX (Corn, Field); rate 0.0156 kg/ha
  ZEAMX herbicidal rating: 3.5
ZEAMX (Corn, Field); rate 0.0313 kg/ha
  ZEAMX herbicidal rating: 4.0
ZEAMX (Corn, Field); rate 0.0625 kg/ha
  ZEAMX herbicidal rating: 4.0
ZEAMX (Corn, Field); rate 0.1250 kg/ha
  ZEAMX herbicidal rating: 5.0
AMBEL (Ragweed, Common) [1]; 0.1250 kg/ha
  AMBEL rating: 0.0
AMBEL (Ragweed, Common) [1]; 0.2500 kg/ha
  AMBEL rating: 4.0
AMBEL (Ragweed, Common) [1]; 0.5000 kg/ha
  AMBEL rating: 4.0
AMBEL (Ragweed, Common) [2]; rate 0.0156 kg/ha
  AMBEL herbicidal rating: 0.0
AMBEL (Ragweed, Common) [2]; rate 0.0313 kg/ha
  AMBEL herbicidal rating: 1.0
AMBEL (Ragweed, Common) [2]; rate 0.0625 kg/ha
  AMBEL herbicidal rating: 4.0
AMBEL (Ragweed, Common) [2]; rate 0.1250 kg/ha
  AMBEL herbicidal rating: 7.0
GALAP (Galium); 0.1250 kg/ha
  GALAP rating: 1.0
GALAP (Galium); 0.2500 kg/ha
  GALAP rating: 0.0
GALAP (Galium); 0.5000 kg/ha
  GALAP rating: 5.0
CASOB (Sicklepod); 0.1250 kg/ha
  CASOB rating: 0.0
CASOB (Sicklepod); 0.2500 kg/ha
  CASOB rating: 1.0
CASOB (Sicklepod); 0.5000 kg/ha
  CASOB rating: 3.0
SETVI (Foxtail, Green); 0.1250 kg/ha
  SETVI rating: 0.0
SETVI (Foxtail, Green); 0.2500 kg/ha
  SETVI rating: 1.0
SETVI (Foxtail, Green); 0.5000 kg/ha
  SETVI rating: 7.0
ABUTH (Velvetleaf); 0.1250 kg/ha
  ABUTH rating: 4.0
ABUTH (Velvetleaf); 0.2500 kg/ha
  ABUTH rating: 9.0
ABUTH (Velvetleaf); 0.5000 kg/ha
  ABUTH rating: 9.0
CYPSE (Flatsedge); 0.0313 kg/ha
  CYPSE herbicidal effect rating: 0.0
CYPSE (Flatsedge); 0.0625 kg/ha
  CYPSE herbicidal effect rating: 0.0
CYPSE (Flatsedge); 0.1250 kg/ha
  CYPSE herbicidal effect rating: 0.0
CYPSE (Flatsedge); 0.2500 kg/ha
  CYPSE herbicidal effect rating: 3.0
[3]; rate 0.0156 kg/ha
  IPOHE herbicidal rating: 7.0
[3]; rate 0.0313 kg/ha
  IPOHE herbicidal rating: 9.0
[3]; rate 0.0625 kg/ha
  IPOHE herbicidal rating: 9.0
[3]; rate 0.1250 kg/ha
  IPOHE herbicidal rating: 9.0
[4]; 0.1250 kg/ha
  GLXMAW rating: 0.0
[4]; 0.2500 kg/ha
  GLXMAW rating: 0.0
[4]; 0.5000 kg/ha
  GLXMAW rating: 3.0
[5]; Rate 0.0313 kg/ha
  Herbicidal rating ECHORC: 0.0
[5]; Rate 0.0625 kg/ha
  Herbicidal rating ECHORC: 0.0
[5]; Rate 0.1250 kg/ha
  Herbicidal rating ECHORC: 2.0
[5]; Rate 0.2500 kg/ha
  Herbicidal rating ECHORC: 3.0
[6]; rate 0.0156 kg/ha
  GLXMAW herbicidal rating: 4.5
[6]; rate 0.0313 kg/ha
  GLXMAW herbicidal rating: 4.0
[6]; rate 0.0625 kg/ha
  GLXMAW herbicidal rating: 5.5
[6]; rate 0.1250 kg/ha
  GLXMAW herbicidal rating: 6.5
ECHCG (Barnyardgrass); 0.1250 kg/ha
  ECHCG rating: 0.0
ECHCG (Barnyardgrass); 0.2500 kg/ha
  ECHCG rating: 0.0
ECHCG (Barnyardgrass); 0.5000 kg/ha
  ECHCG rating: 0.0

Source: patent publication US20020137929A1, “1 - (3-heterocyclylphenyl) isothiourea, -isourea, -guanidine and -amidine herbicidal agents” (Intellectual Property Department, BASF Aktiengesellschaft, priority 1998, published 2002)
